These results are taken from patent publication US6946483B2, “Aminoalkenylbenzoyl-benzofuran or benzothiophene, method for preparing same and compositions containing same” (Sanofi-Aventis, priority 2000, dated 2005).

Counter-ions that a name gives are not always drawn.

What is called melting point is the temperature of the solid-liquid transition. `CCCCN(C/C=C/c1ccc(C(=O)c2c(C)oc3ccc(C(=O)OC(C)C)cc23)cc1)CCCC` (as salt: hydrochloride) [Example 50]: the melting point fell in the range of 189 to 191 °C.
Consider `CCCCc1oc2c(C(=O)OC(C)C)cccc2c1C(=O)c1ccc(/C=C/CN(CCCC)CCCC)cc1` (as salt: oxalate) [Example 52], for which the melting point worked out at 120 °C.
Take `CCCCNCC#Cc1ccc(C(=O)c2c(CCCC)oc3ccc(C(=O)OC(C)C)cc23)cc1` (as salt: hydrochloride) [Example 36]: the melting point was 166 to 167 °C.
Turning to `CCCCc1oc2cc(C(=O)OC(C)C)ccc2c1C(=O)c1ccc(/C=C/CN(CCCC)CCCC)cc1` (as salt: hydrochloride) [Example 38], the melting point fell in the range of 110 to 114 °C.
Regarding `CCCCc1oc2ccc(C(=O)OC(C)C)cc2c1C(=O)c1cc(C)c(/C=C/CN(CCCC)CCCC)c(C)c1` (as salt: oxalate) [Example 44], the melting point lay in the range of 110 to 115 °C.
Then `CCCCc1oc2ccc(C(=O)OC(C)C)cc2c1C(=O)c1ccc(/C=C/CN(CCCC)CCCC)cc1` (as salt: oxalate) [Example 39], with 112 °C; and `CCCCc1oc2cc(C)c(C(=O)OC(C)C)cc2c1C(=O)c1ccc(/C=C\CN(CCCC)CCCC)cc1.Cl`, with 129 °C.
Turning to `CCCCN(C/C=C/c1ccc(C(=O)c2c(C3CCCCC3)oc3ccc(C(=O)OC(C)C)cc23)cc1)CCCC` (as salt: hydrochloride) [Example 43], the melting point lay within 171 to 173 °C.
`CCCCN(C/C=C/c1ccc(C(=O)c2c(CC(C)C)oc3ccc(C(=O)OC(C)C)cc23)cc1)CCCC` (as salt: hydrochloride) [Example 40] gave a melting point of 147 to 150 °C.
Turning to `CCCCc1oc2ccc(C(=O)OC(C)C)cc2c1C(=O)c1cc(Cl)c(/C=C/CN(CCCC)CCCC)c(Cl)c1` (as salt: oxalate) [Example 51], the melting point was 91 to 93 °C.
The compound `CCCCc1oc2ccc(C(=O)OC)cc2c1C(=O)c1ccc(C#CCN2CCCCC2)cc1` (as salt: hydrochloride) [Example 34] registered a melting point of 153 to 154 °C.
